For the test, the system named is mouse counterpart genes. Description: Mouse GeneChip (MG-U74A to MG-U74C) analysis of lung and trachea of the OVA antigen-exposed bronchial hypersensitivity model, S-Sal group versus S-OVA group. To be noted: S-Sal vs S-OVA group. The test is classed as in vivo.

Regarding “ovalbumin [OVA antigen, ovalbumin antigen used for sensitization and inhalation to induce bronchial hypersensitivity in mice]”, the “Fold Change, myxovirus (influenza virus) resistance 1 (mouse Probe ID 98417_at)” value came out at 1.1 (1st, P/A: A); 2.2 (2nd, P/A: A); 3 (3rd, P/A: A). Moreover, the “Fold Change, myxovirus (influenza virus) resistance 2 (mouse Probe ID 102699_at)” value (from here on “Fold Change … (mouse Probe ID 102699_at)”) (1st, P/A: A) turned out to be 1.2; the “Fold Change … (mouse Probe ID 102699_at)” value (2nd, P/A: P) is 0.909; the “Fold Change … (mouse Probe ID 102699_at)” value (3rd, P/A: A) is 1.3.

The values above are taken from patent US20050208496A1, “Methods of testing for bronchial asthma or chronic obstructive pulmonary disease” (Genox Research, Inc., priority 2002, published 2005).
